Source: patent US20110028458A1, “INHIBITION OF CELL MIGRATION BY A FARNESYLATED DIBENZODIAZEPINONE” (THALLION PHARMACEUTICALS INC., priority 2008, published 2011)
Where two headings read alike, the source gives them in different places.

Tests used:
SRBC = test: Hemolysis of SRBC; type: cell-based
[1] = test system: 60 different human tumor cell lines; test: NCI in vitro screening, 60 human tumor cell lines; type: cell-based; settings: 60 cell lines
Excerpt: (§1) A study measuring the in vitro cytotoxic activity of Compound 1 was first performed by the NCI (National Cancer Institute, U.S. National Institutes of Health, Bethesda, Md., USA) against a panel of human cancer cell lines. This screen utilizes 60 different human tumor cell lines, representing cancers of the blood, skin, lung, colon, brain, ovary, breast, prostate, and kidney. Further information regarding the NCI panel of human cancer lines can be obtained by following the links at the NCI world-wide website of the National Cancer Institute. The compound was sent and tested on three occasions (Mar. 31, 2003; Dec. 1, 2003; Mar. 27, 2007).

[2] = test system: breast carcinoma tumor cell lines; test: NCI panel, breast carcinoma; type: cell-based; settings: Homo sapiens; read-out: GI50 range, breast carcinoma
Excerpt: as §1

[3] = test system: ovarian carcinoma tumor cell lines; test: NCI panel, ovarian carcinoma; type: cell-based; settings: Homo sapiens; read-out: GI50 range, ovarian carcinoma
Excerpt: as §1

[4] = test system: colon carcinoma tumor cell lines; test: NCI panel, colon carcinoma; type: cell-based; settings: Homo sapiens; read-out: GI50 range, colon carcinoma
Excerpt: as §1

[5] = TLN-4601 concentrations in plasma and tissues of rats with C6 orthotopic brain tumors; type: in vivo; settings: rat; for concentration at 60 min: CIV for 60 min
Protocol: (R)-1-(2-chlorophenyl)-[…]N-(1-methyl-propyl)-3-isoquinoline carboxamide (R N-desmethyl PK11195), the precursor for the radioisotope-labeled (R)-PK11195, was purchased from ABX (Radeburg, Germany). The synthesis of ^11C-(R)-PK11195 was accomplished by a modification of the method of Camsonne et al. (J. Label. Compd. Radiopharm., 21: 985-991, 1984). In vivo PET studies were performed 14 days post tumor implantation. PET imaging studies were performed while the animals were anesthetized and placed in the supine position on the bed and at the center of the FOV of the CTI Concorde R4 microPET scanner (Siemens/CTI Concorde, Knoxville, Tenn.). Each dynamic PET study lasted 60 min and was initiated with an IV bolus administration of 11C-PK11195 (7.1-12.7 MBq) radioligand via the tail vein. Receptor occupancy studies were performed by acquisition of 11C-PK11195 images prior to and during TLN-4601 treatment over 60 minutes. TLN-4601 was administered by a bolus IV infusion (30 mg/kg) followed by continuous IV infusion (5 mg/h/kg) lasting through the dynamic scan. Attenuation correction factors, for each 6 rats, were determined using a 10 minute 57 Co transmission scan acquired immediately prior to the dynamic scan. In addition, all images were scatter corrected.
Following completion of in vivo studies, animals were sacrificed by anesthetic overdose and decapitated. Brain, tumor, and liver were snap-frozen in liquid nitrogen and stored frozen (−70° C.±10° C.). For blood samples, each blood sample was collected into a K2-EDTA tube and kept on wet ice for a maximum of 30 minutes. Blood samples were centrifuged under refrigeration (2 to 8° C.) for 10 minutes at 1,500 g (RCF). A volume of 25 μL of aqueous 4% w/v L-ascorbic acid was added to a volume of 225 μL of rat plasma in a clean tube, and the samples were thoroughly mixed by inversion. A volume of 125 uL of the resulting mixture was transferred to a separate tube for bioanalysis, while the remaining mixture was maintained as a backup, and both the bioanalysis and back-up portions were frozen on dry ice and stored frozen (−70° C.±10° C.).
Rat plasma and tissue samples were extracted with 9 volumes of acetone containing 100 ng/mL of the internal standard (Compound 2) and analysed by HPLC/MS/MS as described in Gourdeau et al (Cancer Chemother Pharmacol vol 61 pp. 911-921).

U87 parental = test: Caspase-3 activity, U87 parental cells; type: cell-based, human; settings: 18 h, serum-free medium
Protocol: Firstly, cells (U87 parental, U87 transfected with EGFR-WT, and U87 transfected with mutated EGFR VIII) were plated in 6 well plates in DMEM containing 10% FBS. The following day, the plated cells were treated with increasing concentrations of Compound 1 (TLN-4601) in serum-free medium. After an 18 h incubation period in the presence of Compound 1, the treated cells were measured for caspase-3 activity using a commercial kit.

[6] = test system: U87 glioma cells and HVMEC-B; test: Fluorimetric caspase-3 activity, U87 glioma versus brain endothelial cells; type: cell-based, human; settings: 0-30 μM, 18 hours
Protocol: To test the effect of Compound 1 on caspase 3 activity in endothelial cells, the following experiment was conducted. HVMEC-B and U87 glioma cells were treated with increasing concentrations of Compound 1 (0-30 μM) in serum-free media for 18 hours. Fluorimetric caspase-3 activity assay was performed as follows: cells were grown to about 60% confluence in 6-well dishes and treated with increasing concentrations of Compound 1 for 18 hours. Cells were then collected and washed in ice-cold PBS pH 7.0. Cells were subsequently lysed in Apo-Alert lysis buffer (Clontech, Palo Alto, Calif.) for 1 hr at 4° C. and the lysates were clarified by centrifugation. Caspase-3 activity was determined by incubation with 50 μM caspase-3-specific fluorogenic peptide substrate acetyl-Asp-Glu-Val-Asp-7-amino-4-trifluoromethylcoumarin (Ac-DEVD-AFC) in 96-well plates. The release of AFC was monitored for at least 30 min at 37° C. on a fluorescence plate reader (Molecular Dynamics (Amersham Biosciences Inc, Sunnyvale, Calif.)) (λex=400 nm, λem=505 nm).

PBR = target: T1, PBR (Rattus norvegicus, UniProt P16257); test: In-house PBR binding assay, [3H]PK11195, rat heart mitochondrial membrane
T1 construct: containing the enriched mitochondria membrane preparation (25 μg of protein); from tissue; host or cells: Sprague Dawley rat heart, enriched mitochondrial membrane preparation

MES-SA = test: MTT growth inhibitory assay, MES-SA; type: cell-based, human; settings: 72 hours
Protocol: (§2) Growth inhibitory activity of TLN-4601 (Compound 1) and other dibenzodiazepinone analogs was evaluated on a panel of 4 human tumor cell lines: the human uterine sarcoma MES-SA and its doxorubicin-resistant P-glycoprotein over-expressing variant, MES-SA/DX5 as well as non-aggressive and highly aggressive human breast cell lines, MCF-7 and MDA-MB-231, respectively. These four cell lines were obtained from the American Type Culture Collection (Manassas, Va.) and cultured in RPMI plus 10% fetal bovine serum (FBS) and maintained at 37° C. with 5% CO2.
(§3) Exponentially growing cells (5,000 cells per well time; cell number determined with a hemocytometer) were seeded in 96-well flat-bottom plates and allowed to grow overnight. Cells were then incubated for 72 hours with three different concentrations of TLN-4601 or analogs: 30, 10, and 3 μM. The in vitro growth inhibitory activity was determined by a commercial MTT assay. All measurements were done in quadruplicate and each experiment was performed 2-3 times. The lower the value, the more cytotoxic is the compound.

MES-SA/DX5 = test: MTT growth inhibitory assay, MES-SA/DX5; type: cell-based, human; settings: 72 hours
Protocol: as §2, §3

MCF-7 = test: MTT growth inhibitory assay, MCF-7; type: cell-based, human; settings: 72 hours
Protocol: as §2, §3

MDA-MB-231 = test: MTT growth inhibitory assay, MDA-MB-231; type: cell-based, human; settings: 72 hours
Protocol: as §2, §3

concentration at 60 min ([5]; Sprague-Dawley, liver, intravenous, read-out: concentration in liver) | concentration at 60 min ([5]; Sprague-Dawley, plasma, intravenous, read-out: concentration in plasma) | Kp at 60 min ([5]; Sprague-Dawley, tumor / plasma, intravenous, read-out: tumor compared to plasma) | concentration at 60 min ([5]; Sprague-Dawley, tumor, intravenous, read-out: accumulation in the tumor) | tumor compared to liver ([5]; in vivo) | IC50 (PBR) | SMILES | Hemolysis ED50 (concentration necessary to achieve 50% hemolysis of SRBC) (SRBC) | cytotoxic activity in the NCI panel [1] | GI50 [2] | GI50 [3] | GI50 [4] | increase in caspase-3 activation (U87 parental) | caspase-3 activity of U87 glioma cells compared to normal human brain endothelial cells [6] | % T/C at 10 μM, MES-SA (MES-SA) | % T/C at 10 μM, MES-SA/DX5 (MES-SA/DX5) | % T/C at 10 μM, MCF-7 (MCF-7) | % T/C at 10 μM, MDA-MB-231 (MDA-MB-231)
24800 ng/g | 16200 ng/g | 11 | 176 µg/mL | 7 fold |  | CC(C)=CCC/C(C)=C/CC/C(C)=C/CN1C(=O)c2cccc(O)c2Nc2c(O)cc(O)cc21 [Compound 1, 10-farnesyl-4,6,8-trihydroxy-5,10-dihydrodibenzo[b,e][1,4]diazepin-11-one] | 7.6 µg/mL | broad cytotoxic activity in the low micromolar range | 1400 to 16300 nM | 2500 to 6200 nM | 3000 to 17300 nM | approximately 15 fold | 2-3 fold |  |  |  | 
 |  |  |  |  | 2600 nM | CC(C)=CCC/C(C)=C/CC/C(C)=C/CN1C(=O)c2cccc(O)c2Nc2c1cc(O)c(Br)c2O [Compound 97] | 15.1 µg/mL |  |  |  |  |  |  | 80% | 83% | 28% | 68%
 |  |  |  |  |  | CC(C)=CCC/C(C)=C/CC/C(C)=C/CN1C(=O)c2cccc(O)c2N(C)c2c1cc(O)c(Br)c2O [Compound 99] |  |  |  |  |  |  |  | 28% | 24% | 50% | 55%
